In ChEMBL document CHEMBL1144331, “Uric acid may inhibit glucose-induced insulin secretion via binding to an essential arginine residue in rat pancreatic beta-cells” (2005):

Tests used:
Rattus norvegicus [1] = assay: Insulin release in rat pancreatic beta-cells after 15 minutes of administration at 1 mM was measured; format: functional
Rattus norvegicus [2] = assay: Insulin release in rat pancreatic beta-cells after 15 minutes of administration of the NH4-salt of compound at 1 mM was measured; format: functional
Rattus norvegicus [3] = assay: Insulin release in rat pancreatic beta-cells after 15 minutes of administration of the K-salt of compound at 1 mM was measured; format: functional
Rattus norvegicus [4] = assay: Insulin release in rat pancreatic beta-cells after 15 minutes of administration of the Na-salt of compound at 1 mM was measured; format: functional
Rattus norvegicus [5] = organism: Rattus norvegicus; assay: Acid dissociation constant was determined
Rattus norvegicus [6] = assay: Insulin release in rat pancreatic beta-cells (PBS-rinsing of the islets) after 15 minutes of administration at 1 mM was measured; format: functional

Compound | Insulin release (Rattus norvegicus [1]) | also measured
O=C1NC(=O)C(O)(O)C(=O)N1 | 0.39 ng/islet/h | –
O=c1[nH]c(=O)c2nn[nH]c2[nH]1 | 7.92 ng/islet/h | –
NC(N)N.O=C1NC(O)Nc2[nH]c(O)nc21 (stereo not drawn) | 8.39 ng/islet/h | –
CN1C(=O)c2nc(O)[nH]c2NC1O.NC(N)N (stereo not drawn) | 8.75 ng/islet/h | –
Cn1c(O)nc2c1C(=O)NC(O)N2.NC(N)N (stereo not drawn) | 8.55 ng/islet/h | –
Cn1c(O)nc2[nH]c(=O)[nH]c(=O)c21 | 8.04 ng/islet/h | –
Cn1c(=O)[nH]c2[nH]c(=O)[nH]c2c1=O | 7.92 ng/islet/h | –
Cn1c(=O)c2[nH]c(=O)[nH]c2n(C)c1=O | 8.48 ng/islet/h | –
O=c1[nH]cnc2nc[nH]c12 [HYPOXANTHINE] | 8.44 ng/islet/h | –
O=C(O)c1nc(=O)[nH]c(=O)[nH]1 [OTERACIL] | 8.26 ng/islet/h | –
Oc1nc(O)c2nc(O)[nH]c2n1 [URIC ACID] | 1.65 ng/islet/h | Insulin release (Rattus norvegicus [2]): 1.66 ng/islet/h; Insulin release (Rattus norvegicus [3]): 1.68 ng/islet/h; Insulin release (Rattus norvegicus [4]): 1.7 ng/islet/h; pKa (Rattus norvegicus [5]): 5.4
O=c1[nH]c(=O)c2nc[nH]c2[nH]1 [XANTHINE] | 3.5 ng/islet/h | Insulin release (Rattus norvegicus [6]): 7.72 ng/islet/h; pKa (Rattus norvegicus [5]): 7.7
